Reference: US7994141B2, “Compositions comprising compounds of natural origin for damaged skin” (Biospectrum, Inc., priority 2006, dated 2011)
One block for each compound: values may come before it.

Tests used:
Details in all cases: individual compound of natural origin
[1] = Determination of antioxidant activity (DPPH method); assay type: biochemical
Method: DPPH (1,1-diphenyl-2-picrylhydrazyl) is a chromogenic radical and thus, can be used to directly confirm the radical scavenging activity of the samples. The samples were dissolved in 4 ml of distilled water or solvent (methanol) and then, mixed well with 1 ml of 100 μM DPPH. Subsequently, the samples were incubated at room temperature for 30 minutes. The absorbance of the remaining DPPH was measured at 517 nm. As a blank of the present experiment, distilled water or solvent was used, and as a control, an experimental group composed only of DPPH in distilled water or solvent without the sample was used. Further, vitamin C was used as a positive control.

[2] = system: NF-kB luciferase activity; experiment: Anti-inflammatory effect: inhibition test of NF-kB luciferase activity (TNF-alpha treated fibroblasts); assay type: cell-based, Human fibroblasts and mouse fibroblasts, NIH3T3; set-up: key: −: No effect; +: Weak effect; ++: Moderate effect; +++: Strong effect; ++++: Very strong effect
Method: The anti-inflammatory effect was determined by the inhibition test of NF-kB luciferase activity. Human fibroblasts and mouse fibroblasts, NIH3T3 were transfected with NF-kB reporter DNA using SuperFect to induce transformation. At 24 hrs after transformation, the samples were treated with TNF-alpha (10 ng/ml). After 16 hrs, the cells were collected, and luminescence measurements were made […] using a Luminometer (Berthold, Germany).

[3] = system: Human keratinocytes; experiment: Wound-healing effect: cell migration assay; assay type: cell-based; set-up: key: −: No effect; +: Weak effect; ++: Moderate effect; +++: Strong effect; ++++: Very strong effect
Method: The wound-healing effect was determined by a cell migration assay. Human keratinocytes were confluently cultured in keratinocyte-SFM media and then, treated with […] mitomycin C (Sigma Chemical) to inhibit cell growth for the measurement of cell migration. The confluent cell monolayer was scratched using a yellow pipette tip to create a cell-free region and then, the cell debris was washed with PBS. After the treatment, the samples were cultured in keratinocyte-SFM media for 48 hrs to observe the effect on cell migration (Cecile A et. al., Molecular Biology of the Cell, 2002; 13: 3845-3858).

[4] = Moisturizing effect: transepidermal water loss (Tewameter TM210); assay type: in vivo, human subjects; set-up: key: −: No effect; +: Weak effect; ++: Moderate effect; +++: Strong effect; ++++: Very strong effect
Method: The transepidermal water loss was measured using a Tewameter TM210 (Germany). The measurement was performed twice, before the treatment and at 2 weeks after the treatment, and the results were statistically compared. The measurement was performed in a temperature/humidity controlled room (no air flow, no light, at a temperature of 22° C. and relative humidity of 40%). The measurement was performed in the abdomen of thirty subjects.

Compound: O=c1ccc2ccccc2o1 [Coumarin]
Antioxidant effect [1]: +
Anti-inflammatory effect [2]: ++
Wound-healing effect [3]: +
Moisturizing effect [4]: −

Compound: CC1(C)[C@@H](O[C@H]2O[C@H](C(=O)O)[C@@H](O)[C@H](O)[C@H]2O[C@@H]2O[C@H](C(=O)O)[C@@H](O)[C@H](O)[C@H]2O)CC[C@]2(C)[C@H]3C(=O)C=C4[C@@H]5C[C@@](C)(C(=O)O)CC[C@]5(C)CC[C@@]4(C)[C@]3(C)CC[C@@H]12 [Glycyrrhizin]
Antioxidant effect [1]: ++
Anti-inflammatory effect [2]: ++
Wound-healing effect [3]: ++
Moisturizing effect [4]: ++

Compound: C=CCc1ccc(O)c(-c2cc(CC=C)ccc2O)c1 [Magnolol]
Antioxidant effect [1]: +
Anti-inflammatory effect [2]: +
Wound-healing effect [3]: +
Moisturizing effect [4]: −

Compound: C[C@H]1[C@H](C)CC[C@]2(C(=O)O)CC[C@]3(C)C(=CC[C@@H]4[C@@]5(C)C[C@@H](O)[C@H](O)[C@@](C)(CO)[C@@H]5[C@H](O)C[C@]43C)[C@H]12 [Madecassic acid]
Anti-inflammatory effect [2]: ++
Wound-healing effect [3]: ++
Moisturizing effect [4]: ++

Compound: CC/C=C\C/C=C\C/C=C\CCCCCCCC(=O)O [Linolenic acid]
Anti-inflammatory effect [2]: ++
Wound-healing effect [3]: ++
Moisturizing effect [4]: ++

Compound: CCCCCCCC/C=C\CCCCCCCC(=O)O [Oleic acid]
Antioxidant effect [1]: +
Anti-inflammatory effect [2]: +
Wound-healing effect [3]: +
Moisturizing effect [4]: +

Compound: CC1=C(O)C(=O)C(C)O1 (stereo not shown) [Furaneol]
Anti-inflammatory effect [2]: +
Wound-healing effect [3]: +
Moisturizing effect [4]: +

Compound: O=P(O)(O)O[C@H]1[C@H](OP(=O)(O)O)[C@@H](OP(=O)(O)O)[C@H](OP(=O)(O)O)[C@@H](OP(=O)(O)O)[C@H]1OP(=O)(O)O [Phytic acid]
Antioxidant effect [1]: +
Anti-inflammatory effect [2]: +
Wound-healing effect [3]: ++
Moisturizing effect [4]: −

Compound: C[C@@H]1O[C@@H](OC[C@H]2O[C@@H](Oc3c(-c4ccc(O)c(O)c4)oc4cc(O)cc(O)c4c3=O)[C@H](O)[C@@H](O)[C@@H]2O)[C@H](O)[C@H](O)[C@H]1O [Rutin]
Anti-inflammatory effect [2]: +
Wound-healing effect [3]: +
Moisturizing effect [4]: +

Anti-inflammatory effect [2]: −
Compound: COC1=C(OC)C(=O)C(C/C=C(\C)CC/C=C(\C)CC/C=C(\C)CC/C=C(\C)CC/C=C(\C)CC/C=C(\C)CC/C=C(\C)CC/C=C(\C)CC/C=C(\C)CCC=C(C)C)=C(C)C1=O [Coenzyme Q10]
Antioxidant effect [1]: +
Wound-healing effect [3]: +
Moisturizing effect [4]: +

Compound: CC(C)=CCC/C(C)=C/CO [Geraniol]
Anti-inflammatory effect [2]: ++
Wound-healing effect [3]: +
Moisturizing effect [4]: −

Compound: O=C(O)/C=C/c1ccc(O)c(O)c1 [Caffeic acid]
Antioxidant effect [1]: +
Anti-inflammatory effect [2]: +
Wound-healing effect [3]: +
Moisturizing effect [4]: +

Anti-inflammatory effect [2]: +
Compound: OCc1c[nH]c2ccccc12 [Indole-3-carbinol]
Antioxidant effect [1]: +
Wound-healing effect [3]: +
Moisturizing effect [4]: −

Compound: O=C1O[C@H]([C@@H](O)CO)C(O)=C1O [Ascorbic acid]
Antioxidant effect [1]: +
Anti-inflammatory effect [2]: +
Wound-healing effect [3]: ++
Moisturizing effect [4]: −

Compound: Cc1cc(O)c2c(c1)C(=O)c1cc(O)cc(O)c1C2=O [Emodin]
Antioxidant effect [1]: ++
Anti-inflammatory effect [2]: ++
Wound-healing effect [3]: ++
Moisturizing effect [4]: ++

Anti-inflammatory effect [2]: +
Compound: Cc1c(C)c2c(c(C)c1O)CC[C@@](C)(CCC[C@H](C)CCC[C@H](C)CCCC(C)C)O2 [alpha-Tocopherol]
Antioxidant effect [1]: +
Wound-healing effect [3]: ++

Compound: C=CCc1ccc(O)c(-c2ccc(O)c(CC=C)c2)c1 [Honokiol]
Antioxidant effect [1]: +
Anti-inflammatory effect [2]: +
Wound-healing effect [3]: ++
Moisturizing effect [4]: −

Compound: CC(C)=CCC[C@](C)(O[C@@H]1O[C@H](CO[C@@H]2O[C@H](CO)[C@@H](O)[C@H](O)[C@H]2O)[C@@H](O)[C@H](O)[C@H]1O)[C@H]1CC[C@]2(C)[C@@H]1[C@H](O)C[C@@H]1[C@@]3(C)CC[C@H](O[C@@H]4O[C@H](CO)[C@@H](O)[C@H](O)[C@H]4O[C@@H]4O[C@H](CO)[C@@H](O)[C@H](O)[C@H]4O)C(C)(C)[C@@H]3CC[C@]12C [Ginsenoside Rb1]
Antioxidant effect [1]: −
Anti-inflammatory effect [2]: +
Wound-healing effect [3]: +
Moisturizing effect [4]: +

Compound: O=C(/C=C/c1ccc(O)c(O)c1)O[C@H](Cc1ccc(O)c(O)c1)C(=O)O [Rosmarinic acid]
Antioxidant effect [1]: ++
Anti-inflammatory effect [2]: ++
Wound-healing effect [3]: ++
Moisturizing effect [4]: ++

Compound: O=c1cc(-c2ccccc2)oc2cc(O)c(O)c(O)c12 [Baicalein]
Antioxidant effect [1]: ++
Anti-inflammatory effect [2]: ++
Wound-healing effect [3]: ++
Moisturizing effect [4]: ++

Compound: C[C@@H]1CC[C@@]2(OC1)O[C@H]1C[C@H]3[C@@H]4CC=C5C[C@@H](O)CC[C@]5(C)[C@H]4CC[C@]3(C)[C@H]1[C@@H]2C [Diosgenin]
Antioxidant effect [1]: −
Anti-inflammatory effect [2]: +
Wound-healing effect [3]: ++
Moisturizing effect [4]: +

Compound: Oc1cc(O)cc(/C=C/c2ccccc2)c1 [Pinosylvin]
Antioxidant effect [1]: +
Anti-inflammatory effect [2]: +
Wound-healing effect [3]: ++
Moisturizing effect [4]: −

Compound: O=c1c(O)c(-c2ccc(O)c(O)c2)oc2cc(O)cc(O)c12 [Quercetin]
Antioxidant effect [1]: ++
Anti-inflammatory effect [2]: ++
Wound-healing effect [3]: ++
Moisturizing effect [4]: ++

Compound: OCCc1ccc(O)c(O)c1 [Hydroxytyrosol]
Anti-inflammatory effect [2]: +
Wound-healing effect [3]: +
Moisturizing effect [4]: +

Compound: CCCCCCCC/C=C/CCCCCCCC(=O)O [Elaidic acid]
Antioxidant effect [1]: +
Anti-inflammatory effect [2]: +
Wound-healing effect [3]: +
Moisturizing effect [4]: −

Compound: CCc1ccc(C)c2ccc(C)c-2c1 [Chamazulene]
Antioxidant effect [1]: ++
Anti-inflammatory effect [2]: ++
Wound-healing effect [3]: ++
Moisturizing effect [4]: ++

Anti-inflammatory effect [2]: +
Compound: O=C(O)c1cc(O)c(O)c(O)c1 [Garlic acid]
Antioxidant effect [1]: +
Wound-healing effect [3]: +
Moisturizing effect [4]: −

Compound: CC1=C(/C=C/C(C)=C/C=C/C(C)=C/CO)C(C)(C)CCC1 [Retinol]
Antioxidant effect [1]: +
Anti-inflammatory effect [2]: +
Wound-healing effect [3]: +
Moisturizing effect [4]: −

Compound: O=C(O)CCCCC1CCSS1 (stereo not drawn) [alpha-lipoic acid]
Antioxidant effect [1]: +
Anti-inflammatory effect [2]: +
Wound-healing effect [3]: ++
Moisturizing effect [4]: −
